“And” between values parts separate entries of the source, which are not always exact repeats. Equal entries are not always repeated.
Details: Liquid, Vibrating tube method

CCCCCCCC(=O)OCC(COC(=O)CCCCCCC)(COC(=O)CCCCCCC)COC(=O)CCCCCCC [pentaerythritol tetraoctanoate]
Details | mass density
323.16 K, 4757.8 kPa | 943.8 kg/m3
323.16 K, 4775.8 kPa | 944 kg/m3
323.16 K, 4790.7 kPa | 943.8 kg/m3
323.16 K, 4806.4 kPa | 943.9 kg/m3
323.16 K, 4825.1 kPa | 943.9 kg/m3
323.16 K, 4840.2 kPa | 943.9 kg/m3
323.16 K, 4856.4 kPa | 943.9 kg/m3
323.16 K, 4875.1 kPa | 943.9 kg/m3
323.16 K, 5122 kPa | 944.1 kg/m3
323.16 K, 5143.5 kPa | 944.1 kg/m3
323.16 K, 5161 kPa | 944.2 kg/m3
323.16 K, 5179 kPa | 944.2 kg/m3
323.16 K, 5197.1 kPa | 944.1 kg/m3
323.16 K, 5335.6 kPa | 944.3 kg/m3
323.16 K, 5398.2 kPa | 944.3 kg/m3
323.16 K, 5417.6 kPa | 944.3 kg/m3
323.16 K, 5438 kPa | 944.3 kg/m3
323.16 K, 5461.9 kPa | 944.3 kg/m3
323.16 K, 5481.8 kPa | 944.5 kg/m3
323.16 K, 5502.5 kPa | 944.5 kg/m3
323.16 K, 5527.1 kPa | 944.4 kg/m3
323.16 K, 5547.9 kPa | 944.4 kg/m3
323.16 K, 5568.6 kPa | 944.4 kg/m3
323.16 K, 5590.2 kPa | 944.4 kg/m3
323.16 K, 5611.9 kPa | 944.4 kg/m3
323.16 K, 5637.6 kPa | 944.4 kg/m3
323.16 K, 5659.6 kPa | 944.4 kg/m3
323.16 K, 5703.9 kPa | 944.5 kg/m3
323.16 K, 5774.4 kPa | 944.6 kg/m3
323.16 K, 5797.1 kPa | 944.6 kg/m3
323.16 K, 5824.6 kPa | 944.7 kg/m3
323.16 K, 5870.9 kPa | 944.6 kg/m3
323.16 K, 6078.5 kPa | 944.7 kg/m3
323.16 K, 6238.8 kPa | 944.8 kg/m3
323.16 K, 6265.6 kPa | 944.9 kg/m3
323.16 K, 6297.7 kPa | 944.9 kg/m3
323.16 K, 6324.9 kPa | 944.9 kg/m3
323.16 K, 6352.7 kPa | 944.9 kg/m3
323.16 K, 6380.2 kPa | 944.9 kg/m3
323.16 K, 12370 kPa | 948.8 kg/m3
323.16 K, 12396 kPa | 948.8 kg/m3
323.16 K, 12424 kPa | 948.8 kg/m3
323.16 K, 20026 kPa | 953.6 kg/m3
323.16 K, 21868 kPa | 954.6 kg/m3
323.16 K, 21910 kPa | 954.7 kg/m3
323.16 K, 22807 kPa | 955.3 kg/m3
323.16 K, 27149 kPa | 957.8 kg/m3
323.16 K, 27197 kPa | 957.9 kg/m3
323.16 K, 27237 kPa | 957.9 kg/m3
323.16 K, 27277 kPa | 957.9 kg/m3
323.16 K, 27317 kPa | 957.9 kg/m3
323.16 K, 27366 kPa | 957.9 kg/m3
323.16 K, 27451 kPa | 958 kg/m3
323.16 K, 27504 kPa | 958 kg/m3
323.16 K, 27997 kPa | 958.3 kg/m3
323.16 K, 28020 kPa | 958.4 kg/m3
323.16 K, 28046 kPa | 958.3 kg/m3
323.16 K, 28069 kPa | 958.3 kg/m3
343.14 K, 4667.8 kPa | 929.4 kg/m3
343.14 K, 4690.1 kPa | 929.4 kg/m3
343.14 K, 8016.3 kPa | 931.8 kg/m3
343.14 K, 8048.6 kPa | 931.8 kg/m3
343.14 K, 8086.2 kPa | 932 kg/m3
343.14 K, 8118.6 kPa | 931.9 kg/m3
343.14 K, 8397.9 kPa | 932.1 kg/m3
343.14 K, 8438.9 kPa | 932.1 kg/m3
343.14 K, 8473.8 kPa | 932.1 kg/m3
343.14 K, 8822.1 kPa | 932.4 kg/m3
343.14 K, 8860.4 kPa | 932.5 kg/m3
343.14 K, 8906.8 kPa | 932.5 kg/m3
343.14 K, 8945 kPa | 932.5 kg/m3
343.14 K, 9418.7 kPa | 932.8 kg/m3
343.14 K, 10399 kPa | 933.5 kg/m3
343.14 K, 11681 kPa | 934.4 kg/m3
343.14 K, 13765 kPa | 935.9 kg/m3
343.14 K, 16874 kPa | 938 kg/m3
343.14 K, 17179 kPa | 938.2 kg/m3
343.14 K, 17211 kPa | 938.2 kg/m3
343.14 K, 17250 kPa | 938.2 kg/m3
343.14 K, 17283 kPa | 938.3 kg/m3
343.14 K, 17315 kPa | 938.2 kg/m3
343.14 K, 20086 kPa | 940.3 kg/m3
343.14 K, 20133 kPa | 940.1 kg/m3
343.14 K, 20456 kPa | 940.4 kg/m3
343.14 K, 20478 kPa | 940.5 kg/m3
343.14 K, 20501 kPa | 940.3 kg/m3
343.14 K, 22979 kPa | 942 kg/m3
343.14 K, 24214 kPa | 942.8 kg/m3
343.14 K, 26657 kPa | 944.4 kg/m3
343.14 K, 30407 kPa | 946.7 kg/m3
343.14 K, 30444 kPa | 946.7 kg/m3
343.14 K, 30488 kPa | 946.6 kg/m3
343.14 K, 30968 kPa | 947 kg/m3
343.14 K, 32801 kPa | 948 kg/m3
343.15 K, 105.1 kPa | 926 kg/m3
343.15 K, 105.3 kPa | 926.1 kg/m3 and 926 kg/m3 and 926.2 kg/m3
343.15 K, 105.5 kPa | 926 kg/m3
343.15 K, 105.6 kPa | 925.9 kg/m3
343.15 K, 106 kPa | 926.1 kg/m3
343.15 K, 108.9 kPa | 926 kg/m3
343.15 K, 123.5 kPa | 926.1 kg/m3
343.15 K, 154.3 kPa | 926 kg/m3
343.15 K, 224 kPa | 926.1 kg/m3
343.15 K, 227.5 kPa | 926.1 kg/m3
343.15 K, 231.8 kPa | 926 kg/m3
343.15 K, 235.3 kPa | 926.1 kg/m3
343.15 K, 239.5 kPa | 926.1 kg/m3
343.15 K, 243.8 kPa | 926.3 kg/m3
343.15 K, 248 kPa | 926.2 kg/m3
343.15 K, 253 kPa | 926.2 kg/m3
343.15 K, 257.4 kPa | 926.1 kg/m3
343.15 K, 262.8 kPa | 926.2 kg/m3
343.15 K, 268.2 kPa | 926.1 kg/m3
343.15 K, 273.2 kPa | 926.1 kg/m3
343.15 K, 279.6 kPa | 926.1 kg/m3
343.15 K, 285.2 kPa | 926.2 kg/m3
343.15 K, 292.1 kPa | 926.2 kg/m3
343.15 K, 299.6 kPa | 926.2 kg/m3
343.15 K, 305.7 kPa | 926.2 kg/m3
343.15 K, 313.9 kPa | 926.1 kg/m3
343.15 K, 321 kPa | 926.1 kg/m3
343.15 K, 329.7 kPa | 926.3 kg/m3
343.15 K, 338 kPa | 926.3 kg/m3
343.15 K, 347.9 kPa | 926.2 kg/m3
343.15 K, 358.4 kPa | 926.1 kg/m3
343.15 K, 367.9 kPa | 926.2 kg/m3
343.15 K, 379.9 kPa | 926.1 kg/m3
343.15 K, 392.9 kPa | 926.3 kg/m3
343.15 K, 404.2 kPa | 926 kg/m3
343.15 K, 419.5 kPa | 926.3 kg/m3
343.15 K, 433.8 kPa | 926.1 kg/m3
343.15 K, 449.4 kPa | 926.1 kg/m3
343.15 K, 460.9 kPa | 926.1 kg/m3
343.15 K, 471.1 kPa | 926.2 kg/m3
343.15 K, 480.2 kPa | 926.3 kg/m3
343.15 K, 491.8 kPa | 926.5 kg/m3
343.15 K, 504 kPa | 926.2 kg/m3
343.15 K, 514.2 kPa | 926.3 kg/m3
343.15 K, 527.6 kPa | 926.3 kg/m3
343.15 K, 538.9 kPa | 926.2 kg/m3
343.15 K, 553.3 kPa | 926.3 kg/m3
343.15 K, 568.4 kPa | 926.4 kg/m3
343.15 K, 582.5 kPa | 926.4 kg/m3
343.15 K, 596.2 kPa | 926.4 kg/m3
343.15 K, 613.8 kPa | 926.4 kg/m3
343.15 K, 632.2 kPa | 926.4 kg/m3
343.15 K, 648.4 kPa | 926.4 kg/m3
